Data as given in ChEMBL document CHEMBL1122903, “Synthesis, in vitro [3H]prazosin displacement, and in vivo activity of 3-aryl-4,5,6,7-tetrahydropyrazolo[4,3-c]pyridines, a new class of antihypertensive agents” (J Med Chem, 1985).
Several values for one entry are separate records, joined by “and”; a condition that tells them apart may be missing. Identical values can stand only once. Each block holds one compound with its values, some of them ahead of it.

How the values were obtained:
Rattus norvegicus = experiment: Antihypertensive activity on spontaneously hypertensive rats, when administered orally at a dose 15 mg/kg; assay type: functional; settings: route oral
[1] = target: T1, Adrenergic receptor alpha-1 (Rattus norvegicus, UniProt P15823+P23944+P43140); experiment: Ability to displace [3H]prazosin from postsynaptic alpha-1 adrenergic receptor of rat in vitro.; assay type: protein assay
T1 sequence (P15823 whole entry): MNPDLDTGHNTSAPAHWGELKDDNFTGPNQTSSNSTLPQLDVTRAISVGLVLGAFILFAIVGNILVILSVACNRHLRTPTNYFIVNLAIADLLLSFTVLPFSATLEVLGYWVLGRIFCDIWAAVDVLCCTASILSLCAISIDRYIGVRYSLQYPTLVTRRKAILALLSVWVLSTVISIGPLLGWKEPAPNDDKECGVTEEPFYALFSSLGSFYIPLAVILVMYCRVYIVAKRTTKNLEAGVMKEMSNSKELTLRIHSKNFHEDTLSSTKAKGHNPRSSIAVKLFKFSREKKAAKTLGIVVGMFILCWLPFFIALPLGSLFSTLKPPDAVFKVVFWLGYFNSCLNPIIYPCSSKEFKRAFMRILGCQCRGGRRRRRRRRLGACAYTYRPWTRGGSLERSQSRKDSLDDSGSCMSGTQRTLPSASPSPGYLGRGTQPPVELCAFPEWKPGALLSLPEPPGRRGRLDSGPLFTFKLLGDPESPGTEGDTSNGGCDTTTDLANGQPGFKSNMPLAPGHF
T1 sequence (P23944 whole entry): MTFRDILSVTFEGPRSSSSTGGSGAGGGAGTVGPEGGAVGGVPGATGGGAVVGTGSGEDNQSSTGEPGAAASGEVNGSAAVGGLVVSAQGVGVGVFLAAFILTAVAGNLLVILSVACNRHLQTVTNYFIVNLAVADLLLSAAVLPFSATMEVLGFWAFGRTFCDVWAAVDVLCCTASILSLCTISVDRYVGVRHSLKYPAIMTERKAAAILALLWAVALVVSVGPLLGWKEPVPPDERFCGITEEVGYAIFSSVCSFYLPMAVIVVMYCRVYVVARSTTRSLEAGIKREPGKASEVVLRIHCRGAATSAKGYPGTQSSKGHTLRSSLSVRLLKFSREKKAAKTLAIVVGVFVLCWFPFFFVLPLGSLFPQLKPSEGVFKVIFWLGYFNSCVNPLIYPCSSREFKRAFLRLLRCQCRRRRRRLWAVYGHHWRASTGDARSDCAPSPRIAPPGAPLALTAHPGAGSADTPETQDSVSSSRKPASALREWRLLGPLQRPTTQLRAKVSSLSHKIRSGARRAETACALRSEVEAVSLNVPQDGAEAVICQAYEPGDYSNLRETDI
T1 sequence (P43140 whole entry): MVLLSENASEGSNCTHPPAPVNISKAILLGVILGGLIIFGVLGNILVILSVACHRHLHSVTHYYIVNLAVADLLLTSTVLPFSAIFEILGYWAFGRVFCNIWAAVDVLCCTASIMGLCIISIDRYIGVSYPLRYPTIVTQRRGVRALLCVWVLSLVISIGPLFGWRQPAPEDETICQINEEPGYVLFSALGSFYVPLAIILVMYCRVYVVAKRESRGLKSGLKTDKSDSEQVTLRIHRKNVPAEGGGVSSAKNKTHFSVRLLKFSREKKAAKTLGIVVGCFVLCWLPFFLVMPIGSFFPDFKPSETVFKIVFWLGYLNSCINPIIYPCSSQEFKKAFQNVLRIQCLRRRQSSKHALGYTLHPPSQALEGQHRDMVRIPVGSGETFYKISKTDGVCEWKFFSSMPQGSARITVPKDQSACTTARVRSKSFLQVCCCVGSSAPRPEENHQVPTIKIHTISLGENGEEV

Canis familiaris [2] = experiment: Heart rate after 8 hours of oral administration in renal hypertensive dogs at dose 0.1 mg/kg; assay type: functional, Canis lupus familiaris
Canis familiaris [3] = experiment: Systolic blood pressure after 4 hr of oral administration in renal hypertensive dogs at dose 0.3 mg/kg; assay type: functional, Canis lupus familiaris
Canis familiaris [4] = experiment: Heart rate after 2 hours of oral administration in renal hypertensive dogs at dose 0.1 mg/kg; assay type: functional, Canis lupus familiaris
Canis familiaris [5] = experiment: Systolic blood pressure after 8 hr of oral administration in renal hypertensive dogs at dose 0.5 mg/kg; assay type: functional, Canis lupus familiaris
Canis familiaris [6] = experiment: Systolic blood pressure after 0 hours of oral administration in renal hypertensive dogs at dose 0.3 mg/kg; assay type: functional, Canis lupus familiaris
Canis familiaris [7] = experiment: Systolic blood pressure after 4 hr of oral administration in renal hypertensive dogs at dose 0.1 mg/kg; assay type: functional, Canis lupus familiaris
Canis familiaris [8] = experiment: Systolic blood pressure after 6 hr of oral administration in renal hypertensive dogs at dose 0.1 mg/kg; assay type: functional, Canis lupus familiaris
Canis familiaris [9] = experiment: Heart rate after 4 hours of oral administration in renal hypertensive dogs at dose 0.5 mg/kg; assay type: functional, Canis lupus familiaris
Canis familiaris [10] = experiment: Systolic blood pressure after 2 hr of oral administration in renal hypertensive dogs at dose 0.5 mg/kg; assay type: functional, Canis lupus familiaris
Canis familiaris [11] = experiment: Peak effect after 2-4 hours systolic blood pressure after 3 days of oral administration in renal hypertensive dogs at dose 0.3 mg/kg; assay type: functional, Canis lupus familiaris, Artery
Canis familiaris [12] = experiment: Systolic blood pressure after 6 hr of oral administration in renal hypertensive dogs at dose 0.3 mg/kg; assay type: functional, Canis lupus familiaris
Canis familiaris [13] = experiment: Systolic blood pressure after 0 hours of oral administration in renal hypertensive dogs at dose 0.1 mg/kg; assay type: functional, Canis lupus familiaris
Canis familiaris [14] = experiment: Heart rate after 8 hours of oral administration in renal hypertensive dogs at dose 0.5 mg/kg; assay type: functional, Canis lupus familiaris
Canis familiaris [15] = experiment: Peak effect after 2-4 hours systolic blood pressure after 2 day of oral administration in renal hypertensive dogs at dose 0.3 mg/kg; assay type: functional, Canis lupus familiaris, Artery
Canis familiaris [16] = experiment: Systolic blood pressure after 2 hours of oral administration in renal hypertensive dogs at dose 0.3 mg/kg; assay type: functional, Canis lupus familiaris
Canis familiaris [17] = experiment: Heart rate after 6 hours of oral administration in renal hypertensive dogs at dose 0.3 mg/kg; assay type: functional, Canis lupus familiaris
Canis familiaris [18] = experiment: Heart rate after 0 hours of oral administration in renal hypertensive dogs at dose 0.1 mg/kg; assay type: functional, Canis lupus familiaris
Canis familiaris [19] = experiment: Systolic blood pressure after 4 hr of oral administration in renal hypertensive dogs at dose 0.5 mg/kg; assay type: functional, Canis lupus familiaris
Canis familiaris [20] = experiment: Heart rate after 8 hours of oral administration in renal hypertensive dogs at dose 0.3 mg/kg; assay type: functional, Canis lupus familiaris
Canis familiaris [21] = experiment: Systolic blood pressure after 8 hr of oral administration in renal hypertensive dogs at dose 0.1 mg/kg; assay type: functional, Canis lupus familiaris
Canis familiaris [22] = experiment: Heart rate after 0 hours of oral administration in renal hypertensive dogs at dose 0.3 mg/kg; assay type: functional, Canis lupus familiaris
Canis familiaris [23] = experiment: Heart rate after 0 hours of oral administration in renal hypertensive dogs at dose 0.5 mg/kg; assay type: functional, Canis lupus familiaris
Canis familiaris [24] = experiment: Heart rate after 6 hours of oral administration in renal hypertensive dogs at dose 0.5 mg/kg; assay type: functional, Canis lupus familiaris
Canis familiaris [25] = experiment: Systolic blood pressure after 8 hr of oral administration in renal hypertensive dogs at dose 0.3 mg/kg; assay type: functional, Canis lupus familiaris
Canis familiaris [26] = experiment: Heart rate after 6 hours of oral administration in renal hypertensive dogs at dose 0.1 mg/kg; assay type: functional, Canis lupus familiaris
Canis familiaris [27] = experiment: Systolic blood pressure after 0 hours of oral administration in renal hypertensive dogs at dose 0.5 mg/kg; assay type: functional, Canis lupus familiaris
Canis familiaris [28] = experiment: Heart rate after 4 hours of oral administration in renal hypertensive dogs at dose 0.3 mg/kg; assay type: functional, Canis lupus familiaris
Canis familiaris [29] = experiment: Heart rate after 2 hours of oral administration in renal hypertensive dogs at dose 0.3 mg/kg; assay type: functional, Canis lupus familiaris
Canis familiaris [30] = experiment: Peak effect after 2-4 hours systolic blood pressure after 1 days of oral administration in renal hypertensive dogs at dose 0.3 mg/kg; assay type: functional, Canis lupus familiaris, Artery
Canis familiaris [31] = experiment: Peak effect after 2-4 hours systolic blood pressure after 7 days of oral administration in renal hypertensive dogs at dose 0.3 mg/kg; assay type: functional, Canis lupus familiaris, Artery
Canis familiaris [32] = experiment: Heart rate after 2 hours of oral administration in renal hypertensive dogs at dose 0.5 mg/kg; assay type: functional, Canis lupus familiaris
Canis familiaris [33] = experiment: Systolic blood pressure after 2 hours of oral administration in renal hypertensive dogs at dose 0.1 mg/kg; assay type: functional, Canis lupus familiaris
Canis familiaris [34] = experiment: Systolic blood pressure after 6 hr of oral administration in renal hypertensive dogs at dose 0.5 mg/kg; assay type: functional, Canis lupus familiaris
Canis familiaris [35] = experiment: Heart rate after 4 hours of oral administration in renal hypertensive dogs at dose 0.1 mg/kg; assay type: functional, Canis lupus familiaris

- Ki [1]: 0.145 µM
SMILES: Cl.Clc1ccc(-c2[nH]nc3c2CNCC3)cc1
- Delta p (Rattus norvegicus): 0%

SMILES: COc1cc2nc(N3CCN(C(=O)c4ccco4)CC3)nc(N)c2cc1OC [PRAZOSIN]
- Heart rate (Canis familiaris [2]): 106%
- Blood pressure (Canis familiaris [3]): 160 mmHg
- Heart rate (Canis familiaris [4]): 92%
- Blood pressure (Canis familiaris [5]): 150 mmHg
- Blood pressure (Canis familiaris [6]): 202 mmHg
- Blood pressure (Canis familiaris [7]): 180 mmHg
- Blood pressure (Canis familiaris [8]): 193 mmHg
- Heart rate (Canis familiaris [9]): 82%
- Blood pressure (Canis familiaris [10]): 135 mmHg
- Blood pressure (Canis familiaris [11]): 96%
- Blood pressure (Canis familiaris [12]): 165 mmHg
- Blood pressure (Canis familiaris [13]): 205 mmHg
- Heart rate (Canis familiaris [14]): 82 beats min-1
- Blood pressure (Canis familiaris [15]): 100% and 92%
- Blood pressure (Canis familiaris [16]): 182 mmHg
- Heart rate (Canis familiaris [17]): 90%
- Heart rate (Canis familiaris [18]): 104 beats min-1
- Blood pressure (Canis familiaris [19]): 125 mmHg
- Heart rate (Canis familiaris [20]): 100%
- Blood pressure (Canis familiaris [21]): 196 mmHg
- Heart rate (Canis familiaris [22]): 110 beats min-1
- Heart rate (Canis familiaris [23]): 86 beats min-1
- Heart rate (Canis familiaris [24]): 78 beats min-1
- Blood pressure (Canis familiaris [25]): 180 mmHg
- Heart rate (Canis familiaris [26]): 96%
- Blood pressure (Canis familiaris [27]): 190 mmHg
- Heart rate (Canis familiaris [28]): 100%
- Heart rate (Canis familiaris [29]): 114%
- Blood pressure (Canis familiaris [30]): 96%
- Blood pressure (Canis familiaris [31]): 100%
- Heart rate (Canis familiaris [32]): 94 beats min-1
- Blood pressure (Canis familiaris [33]): 186 mmHg
- Blood pressure (Canis familiaris [34]): 125 mmHg
- Heart rate (Canis familiaris [35]): 94%
